Experimental data published in publication PMC9653339, “Revisiting the anticancer properties of phosphane(9-ribosylpurine-6-thiolato)gold(I) complexes and their 9H-purine precursors” (Journal of Biological Inorganic Chemistry, 2022).
Several values for one entry are separate records, joined by “and”; a condition that tells them apart may be missing. Identical values can stand only once. Like-named read-outs stand apart in the source and are kept apart here.

What was measured:
[1] = system: EA.hy926 endothelial hybrid cells; test: MTT cell viability assay, EA.hy926; type: cell-based, human
Description: (§1) All complexes stable in solution were investigated for their anti-proliferative effect on nine human cancer cell lines, using the MTT-based cell viability assay. Cells were seeded in 96-well microtiter plates (Sarstedt) with a cell density of 0.05 × 10^6 cells per ml and 100 µL per well and incubated for 24 h. A dilution series of test compounds was added to the wells, ranging in twelve steps from 100 µM to 5 nM. As a control, equal amounts of DMSO were added. Treated cells were further incubated for 72 h. Then, 12.5 µL per well of MTT solution (0.05% in phosphate-buffered saline (PBS)) was added, followed by another 2 h of incubation. The plates were centrifuged, the medium was discarded and 25 µL per well of SDS solution in DMSO (10% SDS, 0.6% AcOH in DMSO) was added to dissolve the formazan. The plates were incubated for a further hour. Absorbances at 570 nm and 630 nm were measured using a plate reader (Tecan). Background absorbance (630 nm) was subtracted from the formazan signal (570 nm). The resulting absorbance was directly proportional to the amount of viable cells. The control was normalized to 100% viable cells and viability of cells treated with test compounds was calculated accordingly. IC50 values were calculated based on a sigmoidal fit model using GraphPad Prism. Means and SD were calculated from at least four independent experiments.

[2] = system: HeLa cervix carcinoma cells; test: MTT cell viability assay, HeLa; type: cell-based, human; details: 72 h
Description: as §1

[3] = system: mdr KB-V1^Vbl cervix carcinoma cells; test: MTT cell viability assay, KB-V1 (with and without verapamil); type: cell-based, human; details: 72 h, without verapamil
Description: as §1

[4] = system: MCF-7 mamma carcinoma cells; test: MTT cell viability assay, MCF-7; type: cell-based, human
Description: as §1

U-87 glioblastoma cells = test: MTT cell viability assay, U-87; type: cell-based, human; details: 72 h
Description: as §1

518A2 melanoma cells [5] = test: MTT cell viability assay, 518A2; type: cell-based, human
Description: as §1

[6] = system: caspase 3/7 in 518A2 melanoma cells; test: Caspase 3/7 activation; type: cell-based, human; details: 518A2 cells, 10 µM, 6 h
Description: The assay was conducted, following manufacturer’s instructions using the Cell Meter Caspase 3/7 activity apoptosis assay kit (AAT Bioquest). Briefly, 518A2 melanoma cells were seeded in 96-well flat black microtiter plates with a density of 0.22 × 10^6 cells per mL and 90 µL per well. After 24 h of incubation, 10 µL per well of tenfold diluted test compounds was added, and the cells were incubated for a further 6 h. Subsequently, 100 µL per well of Caspase 3/7 substrate working solution was added and incubated for 1 h in the dark at room temperature. The fluorescence was measured using a micro-plate reader (Tecan) at ex/em = 490/525 nm.

518A2 melanoma cells [7] = test: Lactate dehydrogenase (LDH) cytotoxicity assay; type: cell-based, human; details: 518A2 cells, 10 µM, 24 h
Description: 518A2 melanoma cells were seeded in 96-well flat bottom microtiter plates (Sarstedt) with 100 µL per well and a cell density of 0.05 × 10^6 cells per mL. Wells containing medium alone were additionally set for background measurement. Cells were allowed to grow overnight followed by substance treatment with 11.1 µL of tenfold concentrated test compound dilutions and further incubated for 24 h. As a positive control, 10 µL per well of lysis solution (9% Triton-X 100 in Millipore H2O) was added and incubated for 45 min to maintain maximum LDH release, the same amount was added to maximum release background correction wells containing only medium. After centrifugation (4 °C, 150×g, 5 min), 50 µL of the supernatant of each well was transferred on a fresh microtiter plate followed by addition of 50 µL LDH assay buffer (223 mg of 2-p-iodophenyl-3-p-nitrophenyl-5-phenyltetrazolium chloride, 57 mg of N-methyl-phenazonium methyl sulfate, 575 mg of […], 3.2 g of lactic acid in 480 ml 200 mM Tris–Cl, pH 8.0) per well. The plate was incubated in the dark for 10–30 min at room temperature. Then 50 µL stop solution (1 M acetic acid) was added per well and the absorbance was measured at 490 nm. The mean value of background wells with medium alone was subtracted from the negative control and test wells. Additionally, the mean value of volume correction wells was subtracted from maximum LDH release wells. The percentage of LDH release was calculated, with the maximum LDH release set as 100% and the negative control as 0% release. Means and SD were calculated from at least three independent experiments.

tubulin = test: Tubulin polymerisation assay; type: biochemical; details: in vitro, turbidity at 340 nm
Description: First, 2 × polymerization buffer was prepared, which consisted of 385 µL Brinkley renaturing buffer 80 (BRB 80), 100 µL glycerol, and 15 µL GTP (100 mM). 50 µL of freshly prepared 2 × polymerization buffer was added to µClear black well plates. Subsequently, 11.1 µL each of a tenfold substance pre-dilution in BRB80 was added. In addition, a combretastatin A-4 positive control was prepared analogously. After rapid addition of 50 µL of tubulin per well, the measurement was started on the plate reader at 340 nm. The plate reader measured at 20 s intervals for at least 120 min until the measurement plateau was reached. For evaluation, OD 340 nm was plotted versus time.

[8] = system: HCT-116^wt colon carcinoma cells; set-up: method as in Bär et al. [33]; details: MTT, value marked * ref Bär et al. [33]; cited from earlier work
518A2 melanoma cells [9] = test: Inhibition of wound healing (scratch migration assay); type: cell-based, human; details: 518A2 cells, IC50 concentrations, 0-24 h
Description: Cells of melanoma cell line 518A2 were seeded in a volume of 500 µL and at a concentration of 0.1 × 10^6 cells/mL in 24-well plates in triplicate. The plate was incubated (37 °C, 95% humidity, 5% CO2) for two days until a confluent monolayer was formed. A 10 µL pipette tip was used to create a wound in the cell lawn, the wound was rinsed with PBS and the medium was changed to a FBS-reduced one. Pictures were taken at first time point (0 h) right before the addition of substance at 100-fold pre-dilution. The plate was then incubated again in the incubator and photos were taken at several more time points (6, 12, and 24 h) [262626].

Row | Compound | IC50 ([1]; Homo sapiens, EA.hy 926, 72 h) [nM] | IC50 ([2]; Homo sapiens, HeLa) [nM] | IC50 ([3]; Homo sapiens, KB-V1/Vbl) [nM] | IC50 ([4]; Homo sapiens, MCF7, 72 h) [nM] | IC50 (U-87 glioblastoma cells; Homo sapiens) [nM] | IC50 (518A2 melanoma cells [5]; Homo sapiens, 518A2, 72 h) [nM] | Caspase 3/7 activity [6] | LDH release (necrosis) (518A2 melanoma cells [7]) | Inhibition of tubulin polymerization (tubulin) | IC50 ([1]; 72 h) [nM] | IC50 [3] [nM] | IC50 ([4]; 72 h, read-out: IC50 MCF7) [nM] | IC50 (U-87 glioblastoma cells) [nM] | IC50 [8] [nM] | IC50 [2] [nM] | IC50 (518A2 melanoma cells [5]; 72 h) | Effect on cell migration (scratch closure) (518A2 melanoma cells [9])
1 | Sc1ncnc2nc[nH]c12 [6-MP, 6-Mercaptopurine, reference compound] | 920 ± 40 | 1400 ± 100 | 1600 ± 100 | 3700 ± 260 | 1400 ± 130 | 11000 ± 1100 | increased caspase activity levels | no enzyme could be detected | inhibited tubulin polymerization | – | – | – | – | – | – | – | –
2 | Nc1nc2nc[nH]c2c(=S)[nH]1 [6-TG, 6-thioguanine, reference compound] | 250 ± 20 | 190 ± 10 | 500 ± 50 | 980 ± 80 | 1700 ± 80 | 5200 ± 450 | increased caspase activity levels | no enzyme could be detected | inhibited tubulin polymerization | – | – | – | – | – | – | – | –
3 | CC(=O)OC[C@H]1O[C@@H]([S-])[C@H](OC(C)=O)[C@@H](OC(C)=O)[C@@H]1OC(C)=O.CCP(CC)CC.[Au+] [Auranofin, auranofin] | – | – | – | – | – | – | increased caspase activity levels | no enzyme could be detected | microtubule-destabilizing agent | 820 ± 40 | 1900 ± 70 | 2200 ± 220 | 2400 ± 240 | 11900 ± 400 | – | – | –
4 | OC[C@H]1O[C@@H](n2cnc3c([S][Au][PH](c4ccccc4)(c4ccccc4)c4ccccc4)ncnc32)[C@H](O)[C@@H]1O [Complex 5, (1,7-Dihydro-6H-purine-9-β-D-ribofuranosyl-6-thiolato) (triphenylphosphane) gold(I)] | – | – | – | – | – | – | increased caspase activity levels | no enzyme could be detected | merely slight inhibition of tubulin polymerization | 340 ± 30 | – | 2400 ± 220 | 1700 ± 150 | – | 190 ± 10 | 2600 ± 250 nM | retarded the closure of the scratch
5 | Nc1nc([S][Au][PH](c2ccccc2)(c2ccccc2)c2ccccc2)c2ncn([C@@H]3O[C@H](CO)[C@@H](O)[C@H]3O)c2n1 [Complex 6, (2-Amino-1,7-dihydro-6H-purine-9-β-D-ribofuranosyl-6-thiolato) (triphenylphosphane) gold(I)] | – | – | – | – | – | – | even exceeded the effects of the three controls | no enzyme could be detected | merely slight inhibition of tubulin polymerization | 3800 ± 130 | 910 ± 90 | 5800 ± 570 | 1200 ± 120 | – | 2400 ± 140 | ~3500 nM and 3500 nM | even accelerated it
